Reference: ChEMBL document CHEMBL5233246, “CT1-3, a novel magnolol-sulforaphane hybrid suppresses tumorigenesis through inducing mitochondria-mediated apoptosis and inhibiting epithelial mesenchymal transition” (Eur J Med Chem, 2020)
Active and inactive are the calls of the source. No cut-off for these calls is given here.

Key:
L02 = assay: Cytotoxicity against human L02 cells assessed as reduction in cell viability incubated for 8 hrs by CCK-8 assay; assay type: toxicity, cell-based; conditions: l02, 8 h
OVCAR-3 = assay: Antiproliferative activity against human OVCAR-3 cells assessed as reduction in cell viability incubated for 24 hrs by CCK-8 assay; assay type: functional, cell-based; conditions: OVCAR-3, 24 h
MCF7 = assay: Antiproliferative activity against human MCF7 cells assessed as reduction in cell viability incubated for 24 hrs by CCK-8 assay; assay type: functional, cell-based; conditions: MCF7, 24 h
SW480 = assay: Antiproliferative activity against human SW480 cells assessed as reduction in cell viability incubated for 24 hrs by CCK-8 assay; assay type: functional, cell-based; conditions: SW480, 24 h
HepG2 = assay: Antiproliferative activity against human HepG2 cells assessed as reduction in cell viability incubated for 24 hrs by CCK-8 assay; assay type: functional, cell-based; conditions: HepG2, 24 h
A549 = assay: Antiproliferative activity against human A549 cells assessed as reduction in cell viability incubated for 24 hrs by CCK-8 assay; assay type: functional, cell-based; conditions: A549, 24 h
NCI-H460 [1] = assay: Antiproliferative activity against human NCI-H460 cells assessed as reduction in cell viability incubated for 24 hrs by CCK-8 assay; assay type: functional, cell-based; conditions: NCI-H460, 24 h
U-251 = assay: Antiproliferative activity against human U-251 cells assessed as reduction in cell viability incubated for 24 hrs by CCK-8 assay; assay type: functional, cell-based; conditions: U-251, 24 h
SGC-7901 = assay: Antiproliferative activity against human SGC-7901 cells assessed as reduction in cell viability incubated for 24 hrs by CCK-8 assay; assay type: functional, cell-based; conditions: SGC-7901, 24 h
MDA-MB-231 = assay: Antiproliferative activity against human MDA-MB-231 cells assessed as reduction in cell viability incubated for 24 hrs by CCK-8 assay; assay type: functional, cell-based; conditions: MDA-MB-231, 24 h
NCI-H1650 = assay: Antiproliferative activity against human NCI-H1650 cells assessed as reduction in cell viability incubated for 24 hrs by CCK-8 assay; assay type: functional, cell-based; conditions: NCI-H1650, 24 h
NCI-H460 [2] = assay: Cytotoxicity against human NCI-H460 cells assessed as reduction in cell viability at 10 uM incubated for 8 hr by CCK-8 assay; assay type: functional, cell-based
[3] = Antiproliferative activity against human […] cells assessed as reduction in cell viability incubated for 24 hrs by CCK-8 assay; assay type: functional, cell-based
NCI-H1299 = assay: Antiproliferative activity against human NCI-H1299 cells assessed as reduction in cell viability incubated for 24 hrs by CCK-8 assay; assay type: functional, cell-based; conditions: NCI-H1299, 24 h
AGS = assay: Antiproliferative activity against human AGS cells assessed as reduction in cell viability incubated for 24 hrs by CCK-8 assay; assay type: functional, cell-based
LoVo = assay: Antiproliferative activity against human LoVo cells assessed as reduction in cell viability incubated for 24 hrs by CCK-8 assay; assay type: functional, cell-based
HONE1 cell line = assay: Antiproliferative activity against human HONE1 cell line assessed as reduction in cell viability incubated for 24 hrs by CCK-8 assay; assay type: functional, cell-based; conditions: HONE1, 24 h
[4] = Antiproliferative activity against human NCI-H1688 cells assessed as reduction in cell viability incubated for 24 hrs by CCK-8 assay; assay type: functional, cell-based; conditions: NCI-H1688, 24 h

SMILES: C=CCc1ccc(O)c(-c2cc(CC=C)ccc2O)c1 [MAGNOLOL]
- Activity (L02): Non-Toxic
- IC50 (OVCAR-3): > 45 µM
- IC50 (MCF7): > 45 µM
- IC50 (SW480): > 45 µM
- IC50 (HepG2): > 45 µM
- IC50 (A549): > 45 µM
- IC50 (NCI-H460 [1]): > 45 µM
- IC50 (U-251): > 45 µM
- IC50 (SGC-7901): > 45 µM
- IC50 (MDA-MB-231): > 45 µM
- IC50 (NCI-H1650): > 45 µM
- Activity (NCI-H460 [2]): inactive
- IC50 [3]: > 45 µM
- IC50 (NCI-H1299): > 45 µM
- IC50 (AGS): > 45 µM
- IC50 (LoVo): > 45 µM
- IC50 (HONE1 cell line): > 45 µM
- IC50 [4]: > 45 µM

SMILES: C[S+]([O-])CCCCN=C=S (stereo not drawn) [SULFORAPHANE]
- Activity (L02): Non-Toxic
- IC50 (OVCAR-3): 18.4 µM
- IC50 (MCF7): 23.1 µM
- IC50 (SW480): 17.8 µM
- IC50 (HepG2): 21 µM
- IC50 (A549): 20.2 µM
- IC50 (NCI-H460 [1]): 21.2 µM
- IC50 (U-251): 22.5 µM
- IC50 (SGC-7901): 24.9 µM
- IC50 (MDA-MB-231): 22.2 µM
- IC50 (NCI-H1650): 22 µM
- Activity (NCI-H460 [2]): inactive
- IC50 [3]: 25.1 µM
- IC50 (NCI-H1299): 11.6 µM
- IC50 (AGS): 18.4 µM
- IC50 (LoVo): 18.5 µM
- IC50 (HONE1 cell line): 19.3 µM
- IC50 [4]: 16.8 µM

SMILES: C=CCc1ccc(O)c(-c2cc(CC=C)ccc2OCCS(=O)(=O)CCCCN=C=S)c1
- Activity (L02): Non-Toxic
- Activity (NCI-H460 [2]): inactive
